According to article PMC6407576, “Synthesis and evaluation of anticancer, antiphospholipases, antiproteases, and antimetabolic syndrome activities of some 3H-quinazolin-4-one derivatives” (Journal of Enzyme Inhibition and Medicinal Chemistry, 2019):

Tests used:
HT-29 cells = assay: MTT cell viability assay; assay type: cell-based, Human; details: for viability at 30 µg/mL: Homo sapiens, HT-29, 24 h, read-out: cell viability; for inhibition of cell viability (in words): HT-29, 30 μg/ml, MTT
Protocol: (§1) Human CRC cell lines, HT-29 and SW620 cells were grown in RPMI (Invitrogen) containing 10% heat-inactivated foetal bovine serum, 100 µg/ml streptomycin, 100 units/ml penicillin and 2 mmol/l L-glutamine.
(§2) Cell viability was determined using the 3-(4, 5-dimethylthiazolyl-2)–2, 5-diphenyltetrazolium bromide) MTT assay according to Mosmann[40]. 5-Fluorouracil (5-FU) was used as positive control. Briefly, after culturing cells in 96 well plates for 24 h, they were treated with different compounds (30 μg/ml) for 24 h. Freshly prepared MTT (5 mM) solutions were added to the cells and were further incubated for 2 h at 37 °C in 5% CO2. One hundred microliters of dimethyl sulphoxide (DMSO) was added in each well to dissolve the formazan crystal, formed in the reaction during incubation by careful pipetting. The absorbance of the product was measured at 540 nm using a microplate reader. The experiments were performed in triplicate for each condition. The graph illustrates the mean and standard deviation (SD) values of three independent experiments.

SW620 cells = assay: MTT cell viability assay; assay type: cell-based, Human; details: for viability at 30 µg/mL: Homo sapiens, SW-620, 24 h, read-out: cell viability; for inhibition of cell viability (in words): SW620, 30 μg/ml, MTT
Protocol: as §1, §2

cathepsin-B = cathepsin-B (Homo sapiens, UniProt P07858); assay: In vitro antiprotease activity; assay type: biochemical; details: 15 min preincubation; read-out: mean IC50 against Cathepsin-B (converted)
Protocol: (§3) The inhibitory effects of 21 3H-quinazolin-4-one derivatives on several available therapeutically important proteases such as cathepsin-B, collagenase, elastase, thrombin, and trypsin were investigated. […] The protease inhibitory activity was expressed as inhibition percentage, which was determined by comparison with a control experiment. The results were expressed as IC50 values that were determined from the standard curve. A protease inhibitor cocktail (Sigma) was used as the positive control.

thrombin = thrombin (Homo sapiens, UniProt P00734); assay: In vitro antiprotease activity; assay type: biochemical; details: 15 min preincubation; read-out: mean IC50 against Thrombin (converted)
Protocol: as §3

trypsin = molecular target: T1, trypsin (Bos taurus, UniProt P00760); assay: In vitro antiprotease activity; assay type: biochemical; details: 15 min preincubation; read-out: mean IC50 against Trypsin (converted)
T1 construct: gene PRSS1
T1 sequence (P00760 24-246): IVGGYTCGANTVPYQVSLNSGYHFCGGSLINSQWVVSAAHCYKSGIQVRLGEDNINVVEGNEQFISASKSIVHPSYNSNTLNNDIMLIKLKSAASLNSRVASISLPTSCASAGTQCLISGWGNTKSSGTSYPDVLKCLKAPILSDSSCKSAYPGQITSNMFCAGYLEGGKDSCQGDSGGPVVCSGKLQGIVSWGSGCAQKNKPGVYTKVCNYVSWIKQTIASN
Protocol: as §3

elastase = assay: In vitro antiprotease activity; assay type: biochemical; details: 15 min preincubation
Protocol: as §3

collagenase = assay: In vitro antiprotease activity; assay type: biochemical; details: 15 min preincubation
Protocol: as §3

xanthine oxidase = xanthine oxidase (Homo sapiens, UniProt P47989); assay: In vitro inhibition of xanthine oxidase; assay type: biochemical
Protocol: The xanthine oxidase inhibitory activities of the examined chemical compounds were determined by following the formation of uric acid from xanthine according to the reported method by Bondet and co-workers[46]. […] The results were expressed as IC50 determined from the curve.

[1] = molecular target: Naja mossambica mossambica sPLA2 (NmPLA2); assay: In vitro antiphospholipase activity; assay type: biochemical; details: 20 min preincubation, lecithin substrate, pH 7.6
[2] = molecular target: Apis mellifera bee venom (AmPLA2) (Apis mellifera, UniProt P00630); assay: biochemical
[3] = molecular target: T2, human group IIA (hG-IIA) sPLA2 (Homo sapiens, UniProt P14555); assay: In vitro antiphospholipase activity; assay type: biochemical
T2 sequence (P14555 21-144): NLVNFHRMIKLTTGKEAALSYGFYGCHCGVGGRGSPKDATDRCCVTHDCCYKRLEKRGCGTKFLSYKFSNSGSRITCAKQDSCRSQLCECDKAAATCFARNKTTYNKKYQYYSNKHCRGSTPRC

[4] = molecular target: T3, human group V (hG-V) sPLA2 (Homo sapiens, UniProt P39877); assay: In vitro antiphospholipase activity; assay type: biochemical; details: 20 min preincubation, lecithin substrate, pH 7.6; read-out: mean IC50 against hG-V (converted)
T3 sequence (P39877 21-138): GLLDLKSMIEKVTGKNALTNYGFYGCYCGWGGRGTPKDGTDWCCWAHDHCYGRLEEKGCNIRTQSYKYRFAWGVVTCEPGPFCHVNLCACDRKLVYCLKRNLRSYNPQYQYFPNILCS

[5] = molecular target: T4, human group X (hG-X) sPLA2 (Homo sapiens, UniProt O15496); assay: In vitro antiphospholipase activity; assay type: biochemical; details: 20 min preincubation, lecithin substrate, pH 7.6; read-out: mean IC50 against hG-X (converted)
T4 sequence (O15496 43-165): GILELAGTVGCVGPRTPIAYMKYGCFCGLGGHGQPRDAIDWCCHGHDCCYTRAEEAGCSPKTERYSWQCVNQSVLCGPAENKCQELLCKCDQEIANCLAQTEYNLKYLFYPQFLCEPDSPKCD

Sequence of xanthine oxidase (P47989 whole entry, species assumed): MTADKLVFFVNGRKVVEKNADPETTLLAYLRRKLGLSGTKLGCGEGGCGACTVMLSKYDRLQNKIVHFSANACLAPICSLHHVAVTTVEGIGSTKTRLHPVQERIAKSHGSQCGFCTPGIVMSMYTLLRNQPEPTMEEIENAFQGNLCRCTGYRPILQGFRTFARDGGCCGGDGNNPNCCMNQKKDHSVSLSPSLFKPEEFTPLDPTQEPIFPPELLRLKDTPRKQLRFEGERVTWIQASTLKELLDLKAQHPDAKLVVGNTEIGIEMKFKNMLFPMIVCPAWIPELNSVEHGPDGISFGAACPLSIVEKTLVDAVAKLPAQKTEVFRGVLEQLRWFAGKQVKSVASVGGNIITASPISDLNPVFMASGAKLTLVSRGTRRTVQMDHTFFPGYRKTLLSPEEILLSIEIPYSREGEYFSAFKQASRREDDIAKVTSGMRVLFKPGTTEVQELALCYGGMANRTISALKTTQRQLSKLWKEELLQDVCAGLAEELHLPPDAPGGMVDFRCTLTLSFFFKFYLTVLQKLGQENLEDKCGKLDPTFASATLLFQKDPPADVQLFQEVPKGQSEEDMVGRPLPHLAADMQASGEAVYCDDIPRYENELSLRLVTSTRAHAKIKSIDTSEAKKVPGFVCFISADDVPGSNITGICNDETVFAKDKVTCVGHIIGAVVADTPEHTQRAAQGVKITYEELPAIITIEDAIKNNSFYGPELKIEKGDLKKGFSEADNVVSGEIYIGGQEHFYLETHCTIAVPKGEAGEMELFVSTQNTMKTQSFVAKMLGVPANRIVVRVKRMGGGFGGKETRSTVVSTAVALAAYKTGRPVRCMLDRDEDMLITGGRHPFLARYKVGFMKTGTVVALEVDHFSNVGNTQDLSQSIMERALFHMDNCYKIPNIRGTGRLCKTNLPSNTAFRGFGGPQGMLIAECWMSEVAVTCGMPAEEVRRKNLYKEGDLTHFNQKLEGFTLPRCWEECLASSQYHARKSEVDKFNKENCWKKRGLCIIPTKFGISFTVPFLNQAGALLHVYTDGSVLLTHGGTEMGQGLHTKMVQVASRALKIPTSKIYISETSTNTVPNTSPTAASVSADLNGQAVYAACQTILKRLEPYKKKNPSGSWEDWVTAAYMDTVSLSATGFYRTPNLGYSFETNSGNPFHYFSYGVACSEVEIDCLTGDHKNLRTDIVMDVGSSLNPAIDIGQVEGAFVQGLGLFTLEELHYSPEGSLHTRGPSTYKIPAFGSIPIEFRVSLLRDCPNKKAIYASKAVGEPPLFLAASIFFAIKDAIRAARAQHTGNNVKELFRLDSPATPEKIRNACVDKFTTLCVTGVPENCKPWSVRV
Sequence of Apis mellifera bee venom (AmPLA2) (P00630 34-167 limits assumed): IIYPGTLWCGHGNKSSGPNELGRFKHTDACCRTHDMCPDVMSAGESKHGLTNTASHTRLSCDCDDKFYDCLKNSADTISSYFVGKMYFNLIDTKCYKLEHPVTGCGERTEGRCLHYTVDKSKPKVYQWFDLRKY

| Structure (SMILES) | viability at 30 µg/mL (HT-29 cells) | viability at 30 µg/mL (SW620 cells) | IC50 (cathepsin-B) | IC50 (thrombin) | IC50 (trypsin) | mean IC50 against Elastase (elastase) | mean IC50 against Collagenase (collagenase) | IC50 (xanthine oxidase) | mean IC50 against NmPLA2 [1] | melting point | IC50 [2] | IC50 [3] | IC50 [4] | IC50 [5] | inhibition of cell viability (in words) (HT-29 cells) | inhibition of cell viability (in words) (SW620 cells) |
| --- | --- | --- | --- | --- | --- | --- | --- | --- | --- | --- | --- | --- | --- | --- | --- | --- |
| O=c1[nH]cc(F)c(=O)[nH]1 [Compound 5-FU, 5-Fluorouracil, reference compound] | 65.9% | 42.7% |  |  |  |  |  |  |  |  |  |  |  |  |  |  |
| COc1cc(-n2c(C)nc3ccc(F)cc3c2=O)cc(OC)c1OC [Compound 5b, 6 -Fluoro-2-methyl-3–(3,4,5-trimethoxy-phenyl)-3H-quinazolin-4-one] |  | 46.6% | 31.9 µM | 2.61 µM | 3.19 µM | 0.70 ± 0.01 µg/mL | 18.00 ± 1.41 µg/mL | 15.7 µM | 4.15 ± 0.50 µg/mL | 193 to 195 °C | 14.8 µM | 60.3 µM | 36.3 µM | 24.7 µM |  |  |
| Cc1nc2ccccc2c(=O)n1/N=C/c1ccc2ccccc2c1 [Compound 8a, (E)-2-Methyl-3-[(naphthalen-2-ylmethylene)-amino]-3H-quinazolin-4-one] |  |  | 116 µM | 109 µM | 110 µM | 32.50 ± 2.12 µg/mL | 31.00 ± 1.41 µg/mL | 137 µM | 36.75 ± 2.48 µg/mL |  | 98.9 µM | 145 µM | 121 µM | 90.9 µM | potently capable of inhibiting cell viability | potently capable of inhibiting cell viability |
| COc1cccc(/C=N/n2c(C)nc3ccc(Br)cc3c2=O)c1[N+](=O)[O-] [Compound 8f, (E)-6-Bromo-3-[(3-methoxy-2-nitro-benzylidene)-amino]-2-methyl-3H-quinazolin-4-one] |  |  | 45.5 µM | 59.9 µM | 74.3 µM | 30.50 ± 2.12 µg/mL | 15.50 ± 2.12 µg/mL | 7.19 µM | 6.00 ± 0.71 µg/mL | 234 to 235 °C | 10.1 µM | 44.6 µM | 37.7 µM | 43.1 µM | potently capable of inhibiting cell viability | potently capable of inhibiting cell viability |
| Cc1nc2ccc(Br)cc2c(=O)n1/N=C/c1ccc(-c2ccccc2)cc1 [Compound 8j, (E)-3-[(Biphenyl-4-ylmethylene)-amino]-6-bromo-2-methyl-3H-quinazolin-4-one] |  |  | 3.35 µM | 29.9 µM | 22.7 µM | 9.00 ± 0.41 µg/mL | 14.00 ± 1.41 µg/mL | 49 µM | 16.40 ± 0.85 µg/mL | 208 to 210 °C | 45.4 µM | 20.2 µM | 14.9 µM | 22.6 µM | potently capable of inhibiting cell viability | potently capable of inhibiting cell viability |
| O=c1c2ccccc2nc(SCc2ccc(Cl)cc2)n1-c1ccccc1 [Compound 15a] |  |  | 48.8 µM | 35.6 µM | 31.7 µM | 11.50 ± 2.12 µg/mL | 28.00 ± 1.41 µg/mL | 31.7 µM | 5.40 ± 0.57 µg/mL |  | 17.2 µM | 22.7 µM | 27.7 µM | 17.8 µM | potently capable of inhibiting cell viability | potently capable of inhibiting cell viability |
| Cc1ccc2nc(SCc3ccc(Cl)cc3)n(-c3ccccc3)c(=O)c2c1 [Compound 15b, 2-(4-Chloro-benzylsulfanyl)-6-methyl-3-phenyl-3H-quinazolin-4-one] |  |  | 34.4 µM | 2.55 µM | 1.27 µM | 0.65 ± 0.02 µg/mL | 26.50 ± 2.12 µg/mL | 49.6 µM | 14.85 ± 0.50 µg/mL | 164 to 165 °C | 34.6 µM | 66.2 µM | 46.8 µM | 34.4 µM | potently capable of inhibiting cell viability | potently capable of inhibiting cell viability |
| Cc1cccc(C)c1NC(=O)CSc1nc2ccccc2c(=O)n1-c1ccccc1 [Compound 15c, N-(2,6-Dimethyl-phenyl)-2-(4-oxo-3-phenyl-3,4-dihydro-quinazolin-2-ylsulfanyl)-acetamide] | 47.5% |  | 26.5 µM | 42.1 µM | 37.3 µM | 18.50 ± 0.71 µg/mL | 18.00 ± 1.41 µg/mL | 148 µM | 28.50 ± 2.12 µg/mL | 218 to 220 °C | 52.9 µM | 96.3 µM | 56.6 µM | 102 µM |  |  |
